Assays:
[1] = tested on: P388; assay: Leukopenia % change in WBC at optimal dose on 3rd day.; assay type: functional, Mus musculus
[2] = tested on: P388; assay: Maximum % T/C against P-388 murine leukemia cells in mice.; assay type: functional, Mus musculus
[3] = tested on: P388; assay: Maximum % T/C with mitomycin C against P-388 murine leukemia cells in mice.; assay type: functional, Mus musculus
[4] = tested on: P388; assay: Minimum effective dose required for antitumor activity against P-388 murine leukemia cells in mice.; assay type: functional; settings: Mus musculus, read-out: MED
[5] = E1/2 value related to the saturated calomal electrode.; assay type: ADME; parameters: unit not given here
[6] = tested on: P388; assay: Optimal dose required for antitumor activity against P-388 murine leukemia cells in mice.; assay type: functional, Mus musculus
[7] = tested on: B16; assay: Average weight change after ip administration of a dose of 2 mg/kg/day in B-16 melanoma in mice; assay type: functional, Mus musculus; settings: route intraperitoneal
[8] = tested on: B16; assay: Average weight change after ip administration of a dose of 3 mg/kg/day in B-16 melanoma in mice; assay type: functional, Mus musculus; settings: route intraperitoneal
[9] = tested on: B16; assay: Average weight change after ip administration of a dose of 5 mg/kg/day inB-16 melanoma in mice; assay type: functional, Mus musculus; settings: route intraperitoneal
[10] = tested on: B16; assay: Tumor free survivors on 62nd day after ip administration of a dose of 2 mg/kg/day in B-16 melanoma in mice; out of 10; assay type: functional, Mus musculus; settings: route intraperitoneal
[11] = tested on: B16; assay: Tumor free survivors on 62nd day after ip administration of a dose of 3 mg/kg/day in B-16 melanoma in mice; assay type: functional, Mus musculus; settings: route intraperitoneal
[12] = tested on: B16; assay: Median survival time (% T/C) after ip administration of a dose of 2 mg/kg/day in B-16 melanoma in mice; assay type: functional, Mus musculus; settings: route intraperitoneal
[13] = tested on: B16; assay: Median survival time (% T/C) after ip administration of a dose of 3 mg/kg/day in B-16 melanoma in mice; assay type: functional, Mus musculus; settings: route intraperitoneal
[14] = tested on: B16; assay: Average weight change after ip administration of a dose of 1 mg/kg/day in B-16 melanoma in mice; assay type: functional, Mus musculus; settings: route intraperitoneal
[15] = tested on: B16; assay: Average weight change after ip administration of a dose of 4 mg/kg/day in B-16 melanoma in mice; assay type: functional, Mus musculus; settings: route intraperitoneal
[16] = tested on: B16; assay: Tumor free survivors on 62nd day after ip administration of a dose of 1 mg/kg/day in B-16 melanoma in mice; assay type: functional, Mus musculus; settings: route intraperitoneal
[17] = tested on: B16; assay: Tumor free survivors on 62nd day after ip administration of a dose of 2 mg/kg/day in B-16 melanoma in mice; assay type: functional, Mus musculus; settings: route intraperitoneal
[18] = tested on: B16; assay: Median survival time (% T/C) after ip administration of a dose of 1 mg/kg/day in B-16 melanoma in mice; assay type: functional, Mus musculus; settings: route intraperitoneal
[19] = tested on: B16; assay: Average weight change after ip administration of a dose of 6 mg/kg/day in B-16 melanoma in mice; assay type: functional, Mus musculus; settings: route intraperitoneal
[20] = tested on: B16; assay: Tumor free survivors on 62nd day after ip administration of a dose of 4 mg/kg/day in B-16 melanoma in mice; out of 10; assay type: functional, Mus musculus; settings: route intraperitoneal
[21] = tested on: B16; assay: Tumor free survivors on 62nd day after ip administration of a dose of 6 mg/kg/day in B-16 melanoma in mice; out of 10; assay type: functional, Mus musculus; settings: route intraperitoneal
[22] = tested on: B16; assay: Median survival time (% T/C) after ip administration of a dose of 4 mg/kg/day in B-16 melanoma in mice; assay type: functional, Mus musculus; settings: route intraperitoneal
[23] = tested on: B16; assay: Median survival time (% T/C) after ip administration of a dose of 6 mg/kg/day in B-16 melanoma in mice; assay type: functional, Mus musculus; settings: route intraperitoneal
[24] = tested on: B16; assay: Tumor free survivors on 62nd day after ip administration of a dose of 4 mg/kg/day in B-16 melanoma in mice; assay type: functional, Mus musculus; settings: route intraperitoneal
[25] = tested on: B16; assay: Median survival time (% T/C) after ip administration of a dose of 4 mg/kg/day inB-16 melanoma in mice; assay type: functional, Mus musculus; settings: route intraperitoneal

Compound	Change in WBC [1] [%]	T/C [2] [%]	T/C [3] [%]	minimal effective dose [4] [mg/kg]	E1/2 [5]	Dose [6] [mg/kg]	other results
COC12[C@@H]3N[C@@H]3CN1C1=C(C(=O)C(N3CCCC(O)C3)=C(C)C1=O)[C@@H]2COC(N)=O (some centres not stated)	55	250	161	0.2	0.26	12.8	–
COC12[C@@H]3N[C@@H]3CN1C1=C(C(=O)C(N3CCSC3)=C(C)C1=O)[C@@H]2COC(N)=O (some centres not stated)	69	222	183	0.2	0.39	25.6	–
COC12[C@@H]3N[C@@H]3CN1C1=C(C(=O)C(N3CC3C(N)=O)=C(C)C1=O)[C@@H]2COC(N)=O (some centres not stated)	–	206	233	0.8	–	6.4	–
COC12[C@@H]3N[C@@H]3CN1C1=C(C(=O)C(N3CCOCC3)=C(C)C1=O)[C@@H]2COC(N)=O (some centres not stated)	82	271	224	0.4	0.39	25.6	–
COC12[C@@H]3N[C@@H]3CN1C1=C(C(=O)C(N3CCNCC3)=C(C)C1=O)[C@@H]2COC(N)=O (some centres not stated)	–	200	288	0.2	0.26	12.8	–
CCN(CC)C1=C(C)C(=O)C2=C(C1=O)[C@H](COC(N)=O)C1(OC)[C@@H]3N[C@@H]3CN21 (some centres not stated)	–	222	211	1.6	0.26	25.6	–
COC12[C@@H]3N[C@@H]3CN1C1=C(C(=O)C(N3CC3C#N)=C(C)C1=O)[C@@H]2COC(N)=O (some centres not stated)	2	339	228	0.2	0.3	12.8	Average weight change [7]: 0 g; Average weight change [8]: 0 g; Average weight change [9]: -1.3 g; Cures [10]: 5; Cures [11]: 0; T/C [12]: 307%; T/C [13]: 65%
COC12[C@@H]3N[C@@H]3CN1C1=C(C(=O)C(N3CCCC3)=C(C)C1=O)[C@@H]2COC(N)=O (some centres not stated)	64	>333	161	0.4	0.35	25.6	–
CCOC(=O)C1CN1C1=C(C)C(=O)C2=C(C1=O)[C@H](COC(N)=O)C1(OC)[C@@H]3N[C@@H]3CN21 (some centres not stated)	–	133	233	–	–	12.8	–
COC12[C@@H]3N[C@@H]3CN1C1=C(C(=O)C(N3CC3c3ccccc3)=C(C)C1=O)[C@@H]2COC(N)=O (some centres not stated)	38	311	200	0.2	–	3.2	–
COC12[C@@H]3N[C@@H]3CN1C1=C(C(=O)C(N3CC3)=C(C)C1=O)[C@@H]2COC(N)=O (some centres not stated)	11	266	300	0.025	0.31	1.6	–
COC(=O)C1CN1C1=C(C)C(=O)C2=C(C1=O)[C@H](COC(N)=O)C1(OC)[C@@H]3N[C@@H]3CN21 (some centres not stated)	–	147	288	1.6	–	6.4	–
COC12[C@@H]3N[C@@H]3CN1C1=C(C(=O)C(N3CCC(N4CCCCC4)CC3)=C(C)C1=O)[C@@H]2COC(N)=O (some centres not stated)	29	194	200	1.6	0.28	12.8	–
COC12[C@@H]3N[C@@H]3CN1C1=C(C(=O)C(N3CCc4ccccc43)=C(C)C1=O)[C@@H]2COC(N)=O (some centres not stated)	–	150	288	0.8	–	12.8	–
COC12[C@@H]3N[C@@H]3CN1C1=C(C(=O)C(N(C)C)=C(C)C1=O)[C@@H]2COC(N)=O (some centres not stated)	–	238	325	0.2	–	25.6	–
COC12[C@@H]3N[C@@H]3CN1C1=C(C(=O)C(N(C)CCN(C)C)=C(C)C1=O)[C@@H]2COC(N)=O (some centres not stated)	–	267	211	0.8	0.33	25.6	–
COC12[C@@H]3N[C@@H]3CN1C1=C(C(=O)C(N3CCSCC3)=C(C)C1=O)[C@@H]2COC(N)=O (some centres not stated)	44	211	178	0.4	–	3.2	–
COC12[C@@H]3N[C@@H]3CN1C1=C(C(=O)C(N3CC3C)=C(C)C1=O)[C@@H]2COC(N)=O (some centres not stated)	24	233	250	0.1	0.32	3.2	–
COC12[C@@H]3N[C@@H]3CN1C1=C(C(=O)C(N3CCN(c4ccc(C(C)=O)cc4)CC3)=C(C)C1=O)[C@@H]2COC(N)=O (some centres not stated)	40	161	200	0.4	–	3.2	–
COC12[C@@H]3N[C@@H]3CN1C1=C(C(=O)C(N3CCC(O)C3)=C(C)C1=O)[C@@H]2COC(N)=O (some centres not stated)	–	163	219	0.8	0.37	25.6	–
COC12[C@@H]3N[C@@H]3CN1C1=C(C(=O)C(N3CCN(C)CC3)=C(C)C1=O)[C@@H]2COC(N)=O (some centres not stated)	34	261	183	0.2	0.24	3.2	–
COC12[C@@H]3N[C@@H]3CN1C1=C(C(=O)C(N3CCCCC3)=C(C)C1=O)[C@@H]2COC(N)=O (some centres not stated)	–	183	322	0.2	0.27	12.8	–
COC12[C@@H]3N[C@@H]3CN1C1=C(C(=O)C(N3CC=CC3)=C(C)C1=O)[C@@H]2COC(N)=O (some centres not stated)	-13	216	268	0.2	–	12.8	–
COC12[C@@H]3N[C@@H]3CN1C1=C(C(=O)C(N3CCN(C=O)CC3)=C(C)C1=O)[C@@H]2COC(N)=O (some centres not stated)	16	294	224	0.2	0.23	6.4	Average weight change [14]: 0 g; Average weight change [7]: -0.1 g; Average weight change [8]: -0.4 g; Average weight change [15]: -1 g; Cures [16]: 1; Cures [17]: 5; Cures [11]: 6; T/C [18]: 210%; T/C [12]: 275%; T/C [13]: 310%; Average weight change [19]: -0.7 g; Cures [20]: 6; Cures [21]: 2; T/C [22]: 310%; T/C [23]: 88%
COC12[C@@H]3N[C@@H]3CN1C1=C(C(=O)C(N3CCCC(C)C3)=C(C)C1=O)[C@@H]2COC(N)=O (some centres not stated)	–	238	319	0.2	–	25.6	–
COC12[C@@H]3N[C@@H]3CN1C1=C(C(=O)C(N3CCC(O)(O)CC3)=C(C)C1=O)[C@@H]2COC(N)=O (some centres not stated)	–	231	219	0.2	0.28	25.6	–
CO[C@@]12[C@H](COC(N)=O)C3=C(C(=O)C(C)=C(N)C3=O)N1C[C@@H]1N[C@@H]12 [MITOMYCIN]	-42	161	–	0.2	-0.45	3.2	Average weight change [14]: 0.2 g; Average weight change [7]: 0.5 g; Average weight change [8]: -0.1 g; Average weight change [15]: -0.1 g; Cures [16]: 0; Cures [17]: 0; Cures [11]: 0; Cures [24]: 0; T/C [18]: 155%; T/C [12]: 152%; T/C [13]: 165%; T/C [25]: 200%

— ChEMBL document CHEMBL1122452, “Mitomycin C analogues with secondary amines at position 7” (J Med Chem, 1983)
